Assay results as given in US20060088598A1, “Intravenous composition, process for producing the same and preparation thereof” (LTT Bio-Pharama Co., Ltd., priority 2002, published 2006).

Legend:
Assay type in all cases: physicochemical
[1] = Encapsulation ratio of agents in PLGA microparticles (HPLC of supernatant and deposit); details: FIG. 1; microparticles of Example 1
Experimental: 100 mg of PLGA (Wako) or PLA (Wako), 10 mg of egg yolk lecithin, and 0.5 mg of an agent were dissolved in 1 ml of dichloromethane. While cooling in an ice bath, the obtained solution was slowly added dropwise, through a 27G needle, to 25 ml of distilled water, which was being stirred with Polytron PT-2100 (Kinematica) or an ultrasonic generator (TOMY). After the stirring was continued for 10 minutes, the mixture was further stirred with a stirrer at room temperature for 2 hours. Thereafter, dichloromethane was removed. The obtained microparticles were concentrated by ultra filtration (Amicon, Centriprep YM-10) and were then purified by gel filtration (Pharmacia, PD-10). The thus obtained particles were centrifuged at 13,000 g for 10 minutes, and the agent contained in the supernatant and deposit was assayed by HPLC. HPLC analysis was carried out in a water/acetonitrile system for measuring the absorption at 210 nm or 240 nm using a C4 reverse phase column (Waters, Symmetry 300). With regard to agents, PGE1, and ASO06 produced by esterifying carboxylic acid and a hydroxyl group thereof, were used as prostanoids.

[2] = Releasing behavior of agent from agent-encapsulated PLGA microparticles in suspension; details: 3% BSA-containing PBS at 37° C.; FIG. 3
Experimental: (§1) 30 mg of PLGA (Wako) or PLA (Wako), 3 mg of egg yolk lecithin (Wako), and 1 mg of AS006 or BDP were dissolved in 1 ml of dichloromethane, and microparticles were then produced by the same method as described in Example 1. The obtained microparticles were suspended in distilled water, PBS, or 3% BSA-containing PBS. The suspension was allowed for a certain period of time, and was then centrifuged at 13,000 g for 10 minutes. Thereafter, AS006 or BDP contained in the deposit was assayed by HPLC.

[3] = Remaining ratio of agent in PLGA microparticles after 1% SDS or 80% FBS, 37° C., 5 minutes; details: with addition of SDS, FIG. 4
Experimental: Each of the agents produced in Example 1 was suspended in 80% FBS (fetal bovine serum) or in a 1% SDS aqueous solution, and the suspension was incubated at 37° C. for 5 minutes. Thereafter, the resultant product was centrifuged at 13,000 g for 10 minutes, and the amount of the agent contained in the deposit was assayed by HPLC.

[4] = Releasing behavior after freeze-drying in 10% sucrose; details: freeze-dried in 10% sucrose, resuspended in 3% BSA-containing PBS; FIGS. 6 and 7
Experimental: as §1
A 10% stabilizer was added to the PLGA microparticle suspension produced in Example 2, and the suspension was then frozen with acetone/dry ice, followed by performing a freeze-drying treatment. The dried PLGA microparticles were dispersed in water again. Thereafter, the turbidity of the suspension was measured with a spectrophotometer, and the microparticle size thereof was measured with a dynamic light scattering photometer. In addition, the AS006-containing PLGA microparticles produced in Example 4 and the BDP-containing PLGA microparticles produced in Example 2 were freeze-dried in 10% sucrose, and the remaining amount of the agent and the releasing behavior were measured by the method described in Example 2.

Structure (SMILES)	encapsulation ratio in PLGA microparticle [1]	sustained-release behavior [2]	agent remaining in PLGA [3] [%]	releasing behavior with vs without freeze-drying [4]
CCC(=O)OCC(=O)[C@@]1(OC(=O)CC)[C@@H](C)C[C@H]2[C@@H]3CCC4=CC(=O)C=C[C@]4(C)[C@@]3(F)[C@@H](O)C[C@@]21C [BDP, betamethazone dipropionate]	significantly increased	same sustained-release behavior as that of ASO06	≥ 80	same releasing behavior regardless whether or not a freeze-drying treatment had been carried out
CCCC(=O)O[C@]1(C(=O)COC(=O)CC)CC[C@H]2[C@@H]3CCC4=CC(=O)CC[C@]4(C)[C@H]3[C@@H](O)C[C@@]21C [HBP, hydrocortisone butyrate propionate]	significantly increased	–	–	–
CCCCC[C@H](O)/C=C/[C@H]1[C@H](O)CC(=O)[C@@H]1CCCCCCC(=O)O [PGE1, prostaglandin E1]	almost no PGE1 could be encapsulated	–	–	–
C[C@]12CCC(=O)C=C1CC[C@@H]1[C@@H]2[C@@H](O)C[C@@]2(C)[C@H]1CC[C@]2(O)C(=O)CO [hydrocortisone, Hydrocortisone]	almost neither hydrocortisone nor betamethazone could be encapsulated	–	–	–
